The results in this text go back to patent US9345703B2, “Kappa opioid receptor effectors and uses thereof” (University of Kansas, priority 2011, dated 2016).

Like-named read-outs stand apart in the source and are kept apart here. Marks after values point to notes of the source that are not given here. Where only a bound is given, the exact number is not on record here.

For experiment [1], the target named is T1, KOR (Homo sapiens, UniProt P41145). Put plainly: DISCOVERX β-arrestin […] assay, agonist mode (KOR DRx). The class given is cell-based. To be noted: for EC50: agonist, n = 3, read-out: Average Potency KOR DRx; for Emax (%): at highest concentration tested, compared to dynorphin A (Emax=100%). From the text: (§1) In this campaign, two assay platforms were employed to evaluate KOR activity and selectivity: the KOR1 DISCOVERX β-Arrestin […] assay and an imaging based β-arrestin translocation assay for confirmatory and selectivity assays. The KOR1 DISCOVERX β-Arrestin […] assay is a commercial platform for direct measurement of GPCR (G protein-coupled receptor) activation by detection of β-Arrestin binding to the KOR. […] In cells that stably express these fusion proteins, ligand stimulation results in the recruitment of β-Arrestin by the GPCR. This interaction encourages the complementation of the two β-galactosidase fragments resulting in the formation of a functional enzyme that converts substrate in the assay medium to a detectable signal.
T1 sequence (P41145 whole entry, the tested form may be a part): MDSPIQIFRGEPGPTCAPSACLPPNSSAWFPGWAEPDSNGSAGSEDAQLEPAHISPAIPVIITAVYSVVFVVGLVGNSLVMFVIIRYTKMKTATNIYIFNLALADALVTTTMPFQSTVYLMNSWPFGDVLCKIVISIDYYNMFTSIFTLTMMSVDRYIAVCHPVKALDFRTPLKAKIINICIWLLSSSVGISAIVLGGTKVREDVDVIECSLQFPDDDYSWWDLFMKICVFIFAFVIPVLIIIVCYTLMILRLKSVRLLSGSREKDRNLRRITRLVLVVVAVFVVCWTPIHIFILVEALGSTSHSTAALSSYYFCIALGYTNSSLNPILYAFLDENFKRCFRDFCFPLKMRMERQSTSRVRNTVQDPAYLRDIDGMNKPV

Experiment [2] deals with T1, KOR. Put plainly: High content imaging based β-arrestin translocation assay, KOR agonist (KOR HCS). The class given is cell-based. The note with it: n = 2, read-out: Average Potency KOR HCS.
Source text: as §1, with “signal. The imaging based high-content β-arrestin translocation assay is based upon the redistribution of β-Arrestin linked to green fluorescent protein (GFP) to the cell surface and detection (Barak, et al. (1997) J. Biol. Chem. 272:27497-27500).” for “signal.”
(§2) Initially, a portion (approximately 290,000 compounds) of the MLSMR compound collection was tested in the KOR1 DISCOVERX β-arrestin primary kappa opioid (KOP) agonist and antagonist screens (PUBCHEM AID 1777 and 1778, respectively) at a single concentration point (10 μM). […] These compounds were concurrently tested in a β-galactosidase counterscreen assay (PUBCHEM AID 1966) to assess the possibility that these compounds might inhibit the reporting enzyme. […] The KOR:DOR:MOR selectivity of the compounds was determined using the analogous β-arrestin translocation assays for the DOR (PUBCHEM AID 2370 and 2357, for agonists and antagonist, respectively) and the MOR (PUBCHEM AID 2352 and 2420, for agonists and antagonists, respectively).

Experiment [3] concerns the target T2, MOR (Homo sapiens, UniProt P35372). Kind of experiment: High content imaging based β-arrestin translocation assay, MOR agonist (MOR HCS). In kind it is cell-based. The note with it: n = 2, read-out: Average Potency MOR HCS.
Source text: as §1, with “signal. The imaging based high-content β-arrestin translocation assay is based upon the redistribution of β-Arrestin linked to green fluorescent protein (GFP) to the cell surface and detection (Barak, et al. (1997) J. Biol. Chem. 272:27497-27500).” for “signal.”
as §2

The target of experiment [4] is T1, KOR. Put plainly: Binding affinity Ki of Table 9.
Experiment [5] addresses T1, KOR. Put plainly: KOR1 DISCOVERX β-Arrestin […] assay, antagonist mode (KOR DRX). To be noted: antagonist; average; read-out: Potency, Target KOR DRX. The class given is cell-based.
Source text: as §1, with “signal. The imaging based high-content β-arrestin translocation assay is based upon the redistribution of β-Arrestin linked to green fluorescent protein (GFP) to the cell surface and detection (Barak, et al. (1997) J. Biol. Chem. 272:27497-27500).” for “signal.”
as §2

For experiment [6], the target named is T1, KOR. Kind of experiment: High content imaging β-arrestin translocation assay, KOR antagonist (KOR HCS). In kind it is cell-based. To be noted: antagonist; average; read-out: Potency, Target KOR HCS.
Source text: as §1, with “signal. The imaging based high-content β-arrestin translocation assay is based upon the redistribution of β-Arrestin linked to green fluorescent protein (GFP) to the cell surface and detection (Barak, et al. (1997) J. Biol. Chem. 272:27497-27500).” for “signal.”
as §2

Experiment [7] addresses T2, MOR. Put plainly: High content imaging β-arrestin translocation assay, MOR antagonist (MOR HCS). In kind it is cell-based.
Source text: as §1, with “signal. The imaging based high-content β-arrestin translocation assay is based upon the redistribution of β-Arrestin linked to green fluorescent protein (GFP) to the cell surface and detection (Barak, et al. (1997) J. Biol. Chem. 272:27497-27500).” for “signal.”
as §2

The target of experiment [8] is DOR (Homo sapiens, UniProt P41143). Put plainly: High content imaging β-arrestin translocation assay, DOR antagonist (DOR HCS). In kind it is cell-based.
DOR, sequence (P41143 whole entry): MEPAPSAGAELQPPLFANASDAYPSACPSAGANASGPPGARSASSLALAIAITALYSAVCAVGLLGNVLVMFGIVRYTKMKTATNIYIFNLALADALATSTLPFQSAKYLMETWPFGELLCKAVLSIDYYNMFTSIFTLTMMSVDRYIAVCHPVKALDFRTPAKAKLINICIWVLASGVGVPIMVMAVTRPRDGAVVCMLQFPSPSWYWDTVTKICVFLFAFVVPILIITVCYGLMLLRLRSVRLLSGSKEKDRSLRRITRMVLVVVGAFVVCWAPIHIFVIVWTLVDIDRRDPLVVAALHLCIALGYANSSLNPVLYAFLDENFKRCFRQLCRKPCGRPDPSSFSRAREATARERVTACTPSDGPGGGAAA
Source text: as §1, with “signal. The imaging based high-content β-arrestin translocation assay is based upon the redistribution of β-Arrestin linked to green fluorescent protein (GFP) to the cell surface and detection (Barak, et al. (1997) J. Biol. Chem. 272:27497-27500).” for “signal.”
as §2

The target of experiment [9] is T3, KOP receptor (Homo sapiens, UniProt P41145). Put plainly: 35S-GTPγS coupling, inhibition. The class given is biochemical.
T3 sequence (P41145 whole entry): as the sequence (P41145 whole entry, the tested form may be a part) above
For experiment [10], the target named is T3, KOP receptor. Put plainly: ERK 1/2 activation, inhibition. In kind it is cell-based.
The mark [11] stands for this setting: antagonist, average, read-out: Potency, Antitarget MOR HCS.
Where [12] appears, read: antagonist, average, read-out: Potency, Antitarget DOR HCS.

T2 sequence (P35372 whole entry): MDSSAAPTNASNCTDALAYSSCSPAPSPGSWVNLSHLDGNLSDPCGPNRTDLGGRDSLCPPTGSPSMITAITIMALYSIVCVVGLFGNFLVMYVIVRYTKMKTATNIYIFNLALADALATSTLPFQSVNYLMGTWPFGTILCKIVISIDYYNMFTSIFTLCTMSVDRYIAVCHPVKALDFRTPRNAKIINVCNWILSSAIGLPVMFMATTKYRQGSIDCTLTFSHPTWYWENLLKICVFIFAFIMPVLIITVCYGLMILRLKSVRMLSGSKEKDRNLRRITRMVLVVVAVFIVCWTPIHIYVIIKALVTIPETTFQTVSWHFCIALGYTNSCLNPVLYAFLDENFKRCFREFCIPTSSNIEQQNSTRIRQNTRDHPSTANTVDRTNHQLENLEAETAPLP

Turning to `Fc1cccc(F)c1CSc1nnc(-c2ccccn2)n1Cc1ccco1` [2{41}], the EC50 in [1] was over 20 µM; in [2], over 32 µM; in experiment [3] it was over 32 µM. Moreover, the Ki in experiment [4] was determined as 55 nM.

As for `COc1ccc(N2CCN(CCCNC(=O)Cn3c(=O)c4cccn4c4ccccc43)CC2)cc1` [Compound 1{1}], the IC50 in experiment [5] is 1.97 µM; in [6], 1.31 µM; in experiment [7], over 32 µM; in [8], over 32 µM; in experiment [9] (n ≧ 3 curves in duplicate) it was 95.7 ± 48 nM; in experiment [10] (n ≧ 3 curves, replicates of 6), 65 ± 9.2 nM. For the same molecule, the “Imax (% NBNI)” value was 122 ± 5^a % NBNI in experiment [9] and 101 ± 3^ % NBNI in [10].

Consider `O=C(Cn1c(=O)c2cccn2c2cccnc21)NCCCN1CCOCC1` [Compound 1{19}], for which the IC50 in experiment [5] was over 20 µM; in [6], over 32 µM; in experiment [7] (setting [11]), over 32 µM; in experiment [8] (setting [12]) it was over 32 µM.

Consider `CN1CCN(CCCNC(=O)Cn2c(=O)c3cccn3c3cccnc32)CC1` [Compound 1{20}], for which the IC50 was over 20 µM in experiment [5], over 32 µM in experiment [6], over 32 µM in experiment [7] (setting [11]) and over 32 µM in experiment [8] (setting [12]).

Consider `O=C(Cn1c(=O)c2cccn2c2cccnc21)NCCCN1CCCCC1` [Compound 1{21}], for which the IC50 in experiment [5] was over 20 µM; in experiment [6], over 32 µM; in [7] (setting [11]) it was over 32 µM; in [8] (setting [12]) it was over 32 µM.

Take `O=C(Cn1c(=O)c2cccn2c2cccnc21)NCCCN1CCN(Cc2ccccc2)CC1` [Compound 1{23}]: the IC50 is over 20 µM in [5], 21.5 µM in [6], over 32 µM in [7] (setting [11]) and over 32 µM in experiment [8] (setting [12]).

Take `FC(F)(F)c1cc(CSc2nnc(-c3ccccn3)n2Cc2cccs2)ccc1Cl` [Compound 2{11}]: the EC50 in experiment [1] was 0.43 µM; in experiment [2] it was 1.4 µM; in experiment [3] it was over 32 µM. In addition, in experiment [1], the “Emax (%)” value is recorded as about 109%. In experiment [4], this molecule displayed an inhibition constant (Ki) of 3 nM.

For the molecule `Cc1ccc(CSc2nnc(-c3ccccn3)n2Cc2ccco2)cc1` [Compound 2{12}], the values for the EC50 in [1], in experiment [2] and in experiment [3] were 6.2 ± 1.26 µM, 5.21 µM and over 32 µM, respectively. In addition, in experiment [1], the “Emax (%)” value was about 150%. This molecule gave a Ki in [4] of 16 nM.

On to `Fc1cc(F)cc(CSc2nnc(-c3ccccn3)n2Cc2cccs2)c1` [Compound 2{17}], for which the EC50 was 7.2 µM in experiment [1], over 17.8 µM in experiment [2] and over 32 µM in experiment [3]. Also, the “Emax (%)” value in experiment [1] is reported as about 150%. This molecule also registered a Ki in experiment [4] of 94 nM.

Consider `COc1ccc(CSc2nnc(-c3ccccn3)n2Cc2ccco2)cc1` [Compound 2{20}], for which the results for the EC50 in experiment [1], in experiment [2] and in [3] were 7.7 ± 1.47 µM, 12.4 µM and over 32 µM, respectively. The “Emax (%)” value in experiment [1] is about 150%. The inhibition constant (Ki) in [4] turned out to be 28 nM.

As for `COc1ccc(CSc2nnc(-c3ccccn3)n2Cc2cccs2)cc1` [Compound 2{21}], the EC50 in [1] was 9.62 ± 1.32 µM; in experiment [2] it was 5.98 µM; in experiment [3], over 32 µM. For the same molecule, the “Emax (%)” value in [1] was about 130%. This molecule also returned a Ki in experiment [4] of 7.1 nM.

`c1ccc(CSc2nnc(-c3ccccn3)n2Cc2ccco2)cc1` [Compound 2{22}]: the EC50 in experiment [1] is over 17.9 µM; in experiment [2], over 32 µM; in [3], over 32 µM. Further, the “Emax (%)” value in experiment [1] is reported as “Emax not reached”. Also, affinity in experiment [4] was put at a Ki of 155 nM.

On to `c1ccc(CSc2nnc(-c3ccccn3)n2Cc2cccs2)cc1` [Compound 2{23}], for which the EC50 was 13.8 ± 1.18 µM in experiment [1], 23.5 µM in experiment [2] and over 32 µM in experiment [3]. In addition, the “Emax (%)” value in experiment [1] is about 150%. The molecule further had a Ki in experiment [4] of 138 nM.

For the molecule `CC(C)c1ccc(CSc2nnc(-c3ccccn3)n2Cc2cccs2)cc1` [Compound 2{34}], the figures for the EC50 in experiment [1], in experiment [2] and in experiment [3] were 3.66 µM, 2.2 µM and over 32 µM, respectively. In addition, the “Emax (%)” value in [1] is about 100%. This molecule yielded a Ki in experiment [4] of 2.3 nM.

With `Cc1ccccc1CSc1nnc(-c2ccccn2)n1Cc1ccco1` [Compound 2{35}], the results for the EC50 in experiment [1], in experiment [2] and in [3] were over 18.8 µM, over 30 µM and over 32 µM, respectively. Besides, the Ki in [4] was 123 nM.

For the molecule `Cc1ccccc1CSc1nnc(-c2ccccn2)n1Cc1cccs1` [Compound 2{36}], the values for the EC50 in experiment [1], in experiment [2] and in experiment [3] were over 16 µM, 14.5 µM and over 32 µM, respectively. For the same molecule, the Ki in experiment [4] came to 68 nM.

In the case of `COc1cccc(CSc2nnc(-c3ccccn3)n2Cc2ccco2)c1` [Compound 2{37}], the values for the EC50 in experiment [1], in experiment [2] and in experiment [3] were over 17.6 µM, over 32 µM and over 32 µM, respectively. The molecule further yielded a Ki in experiment [4] of 67 nM.

As to `Fc1cccc(F)c1CSc1nnc(-c2ccccn2)n1Cc1cccs1` [Compound 2{42}], the EC50 is over 19 µM in experiment [1], 20.9 µM in experiment [2] and over 32 µM in experiment [3]. In experiment [4], this molecule yielded a Ki of 78 nM.

With `Clc1ccccc1CSc1nnc(-c2ccccn2)n1Cc1ccco1` [Compound 2{47}], the EC50 in experiment [1] is 9.07 µM; in [2], 11.6 µM; in [3], over 32 µM. The inhibitory constant (Ki) in experiment [4] turned out to be 106 nM.

In general, Ki refers to a measure of affinity in units of concentration, obtained from inhibition or displacement. High values mean lower affinity, low ones higher affinity.
